ChEMBL document CHEMBL1138554, “Synthesis and QSAR evaluation of 2-(substituted phenyl)-1H-benzimidazoles and [2-(substituted phenyl)-benzimidazol-1-yl]-pyridin-3-yl-methanones” (Eur J Med Chem, 2009)

Tests used:
[1] = system: Bacillus subtilis; experiment: Antimicrobial activity against Bacillus subtilis at 37 degC after 24 hrs by tube dilution method; format: functional; parameters: unit not given here
[2] = system: Aspergillus niger; experiment: Antifungal activity against Aspergillus niger at 25 degC after 7 days by tube dilution method; format: functional; parameters: unit not given here
[3] = system: Candida albicans; experiment: Antifungal activity against Candida albicans at 37 degC after 48 hrs by tube dilution method; format: functional; parameters: unit not given here
[4] = system: Staphylococcus aureus; experiment: Antimicrobial activity against Staphylococcus aureus at 37 degC after 24 hrs by tube dilution method; format: functional; parameters: unit not given here
[5] = system: Escherichia coli; experiment: Antimicrobial activity against Escherichia coli at 37 degC after 24 hrs by tube dilution method; format: functional; parameters: unit not given here
[6] = Octanol-water partition coefficient, log P of the compound; format: physicochemical

Row | SMILES | -logMIC [1] | -logMIC [2] | -logMIC [3] | -logMIC [4] | -logMIC [5] | logP [6]
1 | c1ccc(-c2nc3ccccc3[nH]2)cc1 | 1.68 | 1.49 | 1.49 | 1.46 | 1.72 | 3.11
2 | COc1ccccc1-c1nc2ccccc2[nH]1 | 1.71 | 1.35 | 1.25 | 1.5 | 1.65 | 2.86
3 | O=[N+]([O-])c1ccccc1-c1nc2ccccc2[nH]1 | 1.73 | 1.58 | 1.58 | 1.17 | 1.35 | 3.07
4 | Oc1ccc(-c2nc3ccccc3[nH]2)cc1 | 1.79 | 1.33 | 1.43 | 1.53 | 1.7 | 2.83
5 | O=C(c1cccnc1)n1c(-c2ccccc2Cl)nc2ccccc21 | 1.43 | 1.43 | 1.73 | 1.73 | 1.65 | 4.7
6 | Clc1ccccc1-c1nc2ccccc2[nH]1 | 1.49 | 1.26 | 1.26 | 1.4 | 1.49 | 3.63
7 | Clc1ccc(-c2nc3ccccc3[nH]2)cc1 | 1.51 | 1.4 | 1.56 | 1.66 | 1.66 | 3.63
8 | Clc1cccc(-c2nc3ccccc3[nH]2)c1 | 1.49 | 1.36 | 1.26 | 1.49 | 1.65 | 3.63
9 | O=C(c1cccnc1)n1c(-c2ccccc2[N+](=O)[O-])nc2ccccc21 | 1.5 | 1.44 | 1.74 | 1.5 | 1.5 | 4.13
10 | O=[N+]([O-])c1ccc(-c2nc3ccccc3[nH]2)cc1 | 1.78 | 1.58 | 1.58 | 1.01 | 1.2 | 3.07
11 | O=C(c1cccnc1)n1c(-c2cccc(Cl)c2)nc2ccccc21 | 1.5 | 1.43 | 1.73 | 1.79 | 1.8 | 4.7
12 | O=[N+]([O-])c1cccc(-c2nc3ccccc3[nH]2)c1 | 1.72 | 1.58 | 1.58 | 1.47 | 1.41 | 3.07
13 | O=C(O)c1ccccc1-c1nc2ccccc2[nH]1 | 1.7 | 1.28 | 1.48 | 1.5 | 1.7 | 2.81
14 | O=C(c1cccnc1)n1c(-c2ccc([N+](=O)[O-])cc2)nc2ccccc21 | 1.44 | 1.44 | 1.74 | 1.44 | 1.44 | 4.13
15 | O=C(c1cccnc1)n1c(-c2cccc([N+](=O)[O-])c2)nc2ccccc21 | 1.44 | 1.44 | 1.74 | 1.44 | 1.44 | 4.13
16 | COc1ccccc1-c1nc2ccccc2n1C(=O)c1cccnc1 | 1.42 | 1.42 | 1.72 | 1.42 | 1.6 | 3.93
17 | O=C(c1cccnc1)n1c(-c2ccc(O)cc2)nc2ccccc21 | 1.57 | 1.4 | 1.7 | 1.7 | 1.8 | 3.89
18 | O=C(c1cccnc1)n1c(-c2ccc(Cl)cc2)nc2ccccc21 | 1.43 | 1.43 | 1.73 | 1.73 | 1.73 | 4.7
19 | O=C(O)c1ccccc1-c1nc2ccccc2n1C(=O)c1cccnc1 | 1.44 | 1.44 | 1.74 | 1.44 | 1.44 | 4.13
20 | O=C(O)c1cn(C2CC2)c2cc(N3CCNCC3)c(F)cc2c1=O [CIPROFLOXACIN] | 3.33 |  |  | 3.33 |  | 
21 | OC(Cn1cncn1)(Cn1cncn1)c1ccc(F)cc1F [FLUCONAZOLE] |  | 2.64 | 2.64 |  | 3.33 | 
